Results as given in patent US20130102593A1, “PYRROLIDINE COMPOUNDS WHICH INHIBIT BETA-SECRETASE ACTIVITY AND METHODS OF USE THEREOF” (priority 2008, published 2013).

Tested on: Aβ production
Experiment: Cellular Aβ IC50 determination (memapsin 2 activity in a cellular assay of Aβ production)
Type: cell-based, Chinese hamster
Details: Cricetulus griseus; Chinese hamster ovary cells over-expressing human APP695 with London and Swedish mutations, 24 h, Aβ40 sandwich ELISA; read-out: M2 IC50
Experimental: The potency of compounds against memapsin 2 activity was determined in a cellular assay of Aβ production. […] Chinese hamster ovary cells that over-express human APP695 with the London and Swedish mutations were seeded in multi-well plates at 10% confluency. Compounds are dissolved in DMSO to concentrations near 1 mM, and diluted into culture media to a final concentration near 4 μM (final 0.4% DMSO). Compounds were diluted serially and applied to cells in multi-well plates 48 h after seeding. Incubation was continued in 5% CO2 at 37° C. for 24 h. Aliquots were removed and assayed for […] content using a sandwich ELISA (BioSource International). Amount of Aβ40 over the range of concentration of compounds, relative to control incubations, were fit to a 4-parameter IC50 model.

Which IC50 does the source give for `Cc1csc([C@H]2CCCN2C(=O)c2cc(F)cc(C(=O)N[C@@H](Cc3ccccc3)[C@H](O)[C@H]3CCCN3)c2)n1` [1-32, 3-fluoro-N-((1R,2S)-1-hydroxy-3-phenyl-1-((R)-pyrrolidin-2-yl)propan-2-yl)-5-((R)-2-(4-methylthiazol-2-yl)pyrrolidine-1-carbonyl)benzamide] here?
Its IC50 is > 1000 nM.

For `Cc1csc([C@H]2CCCN2C(=O)c2cc(C(=O)N[C@@H](Cc3ccccc3)[C@H](O)[C@H]3CCCN3)cc(N3CCOCC3)c2)n1` [1-33, N-((1R,2S)-1-hydroxy-3-phenyl-1-((R)-pyrrolidin-2-yl)propan-2-yl)-3-((R)-2-(4-methylthiazol-2-yl)pyrrolidine-1-carbonyl)-5-morpholinobenzamide], which IC50 is on record?
Its IC50 is > 1000 nM.

With `COc1cc(C(=O)N[C@@H](Cc2ccccc2)[C@H](O)[C@H]2CCCN2)cc(C(=O)N2CCC[C@@H]2c2nc(C)cs2)c1` [1-34, N-((1R,2S)-1-hydroxy-3-phenyl-1-((R)-pyrrolidin-2-yl)propan-2-yl)-3-methoxy-5-((R)-2-(4-methylthiazol-2-yl)pyrrolidine-1-carbonyl)benzamide] as the compound, how does the IC50 read?
Its IC50 is > 1000 nM.

`Cc1csc([C@H]2CCCN2C(=O)c2cc(CF)cc(C(=O)N[C@@H](Cc3ccccc3)[C@H](O)[C@H]3C[C@@H](OCc4ccccc4)CN3)c2)n1` [1-36, N-((1R,2S)-1-((2R,4R)-4-(benzyloxy)pyrrolidin-2-yl)-1-hydroxy-3-phenylpropan-2-yl)-3-(fluoromethyl)-5-((R)-2-(4-methylthiazol-2-yl)pyrrolidine-1-carbonyl)benzamide] was tested. Which IC50 did it give?
Its IC50 is < 500 nM.

How did the IC50 turn out when `Cc1csc([C@H]2CCCN2C(=O)c2cc(C(=O)N[C@@H](Cc3ccccc3)[C@H](O)[C@H]3CCCN3)cc(N3CCCC3=O)c2)n1` [1-39, N-((1R,2S)-1-hydroxy-3-phenyl-1-((R)-pyrrolidin-2-yl)propan-2-yl)-3-((R)-2-(4-methylthiazol-2-yl)pyrrolidine-1-carbonyl)-5-(2-oxopyrrolidin-1-yl)benzamide] was run?
The IC50 was < 500 nM.

How did the IC50 turn out when `Cc1csc([C@H]2CCCN2C(=O)c2cccc(C(=O)N[C@@H](Cc3ccccc3)[C@H](O)[C@H]3CCCN3)c2)n1` [1-40, N-((1R,2S)-1-hydroxy-3-phenyl-1-((R)-pyrrolidin-2-yl)propan-2-yl)-3-((R)-2-(4-methylthiazol-2-yl)pyrrolidine-1-carbonyl)benzamide] was run?
Its IC50 is 500 to 1000 nM.

Which IC50 does the source give for `Cc1csc(CN(C)C(=O)c2cccc(C(=O)N[C@@H](Cc3cc(F)cc(F)c3)[C@H](O)[C@H]3CCCN3)c2)n1` [1-41, N1-((1R,2S)-3-(3,5-difluorophenyl)-1-hydroxy-1-((R)-pyrrolidin-2-yl)propan-2-yl)-N3-methyl-N3-((4-methylthiazol-2-yl)methyl)isophthalamide] here?
Its IC50 is > 1000 nM.

For `Cc1csc([C@H]2CCCN2C(=O)c2cc(C(=O)N[C@@H](Cc3ccccc3)[C@H](O)[C@H]3CCCN3)cc(N(C)C)c2)n1` [1-42, 3-(dimethylamino)-N-((1R,2S)-1-hydroxy-3-phenyl-1-((R)-pyrrolidin-2-yl)propan-2-yl)-5-((R)-2-(4-methylthiazol-2-yl)pyrrolidine-1-carbonyl)benzamide], which IC50 is on record?
Its IC50 is > 1000 nM.

For `Cc1csc([C@H]2CCCN2C(=O)c2cc(C(=O)N[C@@H](Cc3ccccc3)[C@H](O)[C@H]3CCCN3)cc(-c3cccc(C(F)(F)F)c3)c2)n1` [1-43, N-((1R,2S)-1-hydroxy-3-phenyl-1-((R)-pyrrolidin-2-yl)propan-2-yl)-5-((R)-2-(4-methylthiazol-2-yl)pyrrolidine-1-carbonyl)-3′-(trifluoromethyl)biphenyl-3-carboxamide], which IC50 is on record?
Its IC50 is > 1000 nM.

`Cc1csc([C@H]2CCCN2C(=O)c2cccc(C(=O)N[C@@H](Cc3cc(F)cc(F)c3)[C@H](O)[C@H]3CCCN3)c2)n1` [1-44, N-((1R,2S)-3-(3,5-difluorophenyl)-1-hydroxy-1-((R)-pyrrolidin-2-yl)propan-2-yl)-3-((R)-2-(4-methylthiazol-2-yl)pyrrolidine-1-carbonyl)benzamide] was tested. Which IC50 did it give?
Its IC50 is 500 to 1000 nM.

With `Cc1csc([C@H]2CCCN2C(=O)c2cc(CF)cc(C(=O)N[C@H](Cc3ccccc3)[C@H](O)[C@H]3C[C@@H](OCc4ccccc4)CN3)c2)n1` [1-45, N-((1R,2R)-1-((2R,4R)-4-(benzyloxy)pyrrolidin-2-yl)-1-hydroxy-3-phenylpropan-2-yl)-3-(fluoromethyl)-5-((R)-2-(4-methylthiazol-2-yl)pyrrolidine-1-carbonyl)benzamide] as the compound, how does the IC50 read?
Its IC50 is > 1000 nM.

`Cc1csc([C@H]2CCCN2C(=O)c2cc(C(=O)N[C@@H](Cc3ccccc3)[C@H](O)[C@H]3CCCN3)cc(N3CCC(F)(F)CC3)c2)n1` [1-46, 3-(4,4-difluoropiperidin-1-yl)-N-((1R,2S)-1-hydroxy-3-phenyl-1-((R)-pyrrolidin-2-yl)propan-2-yl)-5-((R)-2-(4-methylthiazol-2-yl)pyrrolidine-1-carbonyl)benzamide] was tested. Which IC50 did it give?
The IC50 was 500 to 1000 nM.

Which IC50 does the source give for `Cc1csc([C@H]2CCCN2C(=O)c2cccc(C(=O)N[C@@H](Cc3ccccc3)[C@H](O)[C@H]3C[C@H](F)CN3)c2)n1` [1-47, N-((1R,2S)-1-((2R,4S)-4-fluoropyrrolidin-2-yl)-1-hydroxy-3-phenylpropan-2-yl)-3-((R)-2-(4-methylthiazol-2-yl)pyrrolidine-1-carbonyl)benzamide] here?
Its IC50 is > 1000 nM.

For `Cc1csc([C@H]2CCCN2C(=O)c2cccc(C(=O)N[C@@H](Cc3ccccc3)[C@H](O)[C@@H]3CCCN3)c2)n1` [1-48, N-((1R,2S)-1-hydroxy-3-phenyl-1-((S)-pyrrolidin-2-yl)propan-2-yl)-3-((R)-2-(4-methylthiazol-2-yl)pyrrolidine-1-carbonyl)benzamide], which IC50 is on record?
Its IC50 is > 1000 nM.

`Cc1csc([C@H]2CCCN2C(=O)c2cc(C(=O)N[C@@H](Cc3cc(F)cc(F)c3)[C@H](O)[C@H]3CCCN3)cc(-c3ncco3)c2)n1` [1-49, N-((1R,2S)-3-(3,5-difluorophenyl)-1-hydroxy-1((R)-pyrrolidin-2-yl)propan-2-yl)-3-((R)-2-(4-methylthiazol-2-yl)pyrrolidine-1-carbonyl)-5-(oxazol-2-yl)benzamide] was tested. Which IC50 did it give?
Its IC50 is < 500 nM.

With `Cc1csc([C@H]2CCCN2C(=O)c2cc(C(=O)N[C@@H](Cc3ccccc3)[C@H](O)[C@H]3CCCN3)cc(C3CC3)c2)n1` [1-50, 3-cyclopropyl-N-((1R,2S)-1-hydroxy-3-phenyl-1-((R)-pyrrolidin-2-yl)propan-2-yl)-5-((R)-2-(4-methylthiazol-2-yl)pyrrolidine-1-carbonyl)benzamide] as the compound, how does the IC50 read?
Its IC50 is > 1000 nM.

`Cc1csc([C@H]2CCCN2C(=O)c2cccc(C(=O)N[C@@H](Cc3ccccc3)[C@H](O)[C@H]3CC[C@@H](C)N3)c2)n1` [1-51, N-((1R,2S)-1-hydroxy-1-((2R,5R)-5-methylpyrrolidin-2-yl)-3-phenylpropan-2-yl)-3-((R)-2-(4-methylthiazol-2-yl)pyrrolidine-1-carbonyl)benzamide] was tested. Which IC50 did it give?
Its IC50 is > 1000 nM.

How did the IC50 turn out when `Cc1csc([C@H]2CCCN2C(=O)c2cc(C(=O)N[C@@H](Cc3ccccc3)[C@H](O)[C@H]3C[C@@H](OCc4ccccc4)CN3)cc(-c3ncco3)c2)n1` [1-52, N-((1R,2S)-1-((2R,4R)-4-(benzyloxy)pyrrolidin-2-yl)-1-hydroxy-3-phenylpropan-2-yl)-3-((R)-2-(4-methylthiazol-2-yl)pyrrolidine-1-carbonyl)-5-(oxazol-2-yl)benzamide] was run?
Its IC50 is < 500 nM.

Which IC50 does the source give for `Cc1csc([C@H]2CCCN2C(=O)c2cccc(C(=O)N[C@@H](Cc3cccc(F)c3)[C@H](O)[C@H]3CCCN3)c2)n1` [1-53, N-((1R,2S)-3-(3-fluorophenyl)-1-hydroxy-1-((R)-pyrrolidin-2-yl)propan-2-yl)-3-((R)-2-(4-methylthiazol-2-yl)pyrrolidine-1-carbonyl)benzamide] here?
Its IC50 is 500 to 1000 nM.

Which IC50 does the source give for `Cc1csc([C@H]2CCCN2C(=O)c2cncc(C(=O)N[C@@H](Cc3ccccc3)[C@H](O)CNCc3cc(Cl)nc(N(C)C)c3)c2)n1` [2-1, N-((2S,3R)-4-((2-chloro-6-(dimethylamino)pyridin-4-yl)methylamino)-3-hydroxy-1-phenylbutan-2-yl)-5-((R)-2-(4-methylthiazol-2-yl)pyrrolidine-1-carbonyl)nicotinamide, reference compound] here?
Its IC50 is < 500 nM.

`Cc1csc([C@H]2CCCN2C(=O)c2cc(C(=O)N[C@@H](Cc3ccccc3)[C@H](O)CNCc3cncc(C(C)C)c3)cc(-c3ccco3)c2)n1` [2-2, 3-(furan-2-yl)-N-((2S,3R)-3-hydroxy-4-((5-isopropylpyridin-3-yl)methylamino)-1-phenylbutan-2-yl)-5-((R)-2-(4-methylthiazol-2-yl)pyrrolidine-1-carbonyl)benzamide, reference compound] was tested. Which IC50 did it give?
Its IC50 is < 500 nM.

How did the IC50 turn out when `Cc1cc(C(=O)N[C@@H](Cc2ccccc2)[C@H](O)CNCc2cncc(C(C)(C)C)c2)cc(C(=O)N2CCC[C@@H]2c2nc(C)co2)c1` [2-3, N-((2S,3R)-4-((5-tert-butylpyridin-3-yl)methylamino)-3-hydroxy-1-phenylbutan-2-yl)-3-methyl-5-((R)-2-(4-methyloxazol-2-yl)pyrrolidine-1-carbonyl)benzamide, reference compound] was run?
Its IC50 is < 500 nM.

`Cc1coc([C@H]2CCCN2C(=O)c2cccc(C(=O)N[C@@H](Cc3ccccc3)[C@H](O)CNCc3cncc(C(C)(C)C)c3)c2)n1` [2-4, N-((2S,3R)-4-((5-tert-butylpyridin-3-yl)methylamino)-3-hydroxy-1-phenylbutan-2-yl)-3-((R)-2-(4-methyloxazol-2-yl)pyrrolidine-1-carbonyl)benzamide, reference compound] was tested. Which IC50 did it give?
Its IC50 is < 500 nM.

`CCn1cc(CNC[C@@H](O)[C@H](Cc2ccccc2)NC(=O)c2cc(C)cc(C(=O)N3CCC[C@@H]3c3nc(C)co3)c2)cn1` [2-5, N-((2S,3R)-4-((1-ethyl-1H-pyrazol-4-yl)methylamino)-3-hydroxy-1-phenylbutan-2-yl)-3-methyl-5-((R)-2-(4-methyloxazol-2-yl)pyrrolidine-1-carbonyl)benzamide, reference compound] was tested. Which IC50 did it give?
Its IC50 is < 500 nM.
